Article PMC2631173 (Chemistry & biology, 2008)

Target: cellular retinoic acid-binding protein I (CRABP I), CPG variant (Mus musculus, UniProt P62965, R132Q)
Assay: fluorescence equilibrium titration of […] FlAsH with purified protein, […] EDT

Chain of cellular retinoic acid-binding protein I (CRABP I), CPG variant (P62965 2-137 R132Q): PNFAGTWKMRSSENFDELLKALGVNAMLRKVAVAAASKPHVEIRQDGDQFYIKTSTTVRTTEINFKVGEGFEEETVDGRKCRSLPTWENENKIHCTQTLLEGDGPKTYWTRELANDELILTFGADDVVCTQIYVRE

## O=C1OC2(c3ccccc31)c1ccc(O)c([As]3SCCS3)c1Oc1c2ccc(O)c1[As]1SCCS1 [FlAsH]
  Kd: 400 nM
